The text below walks through data of US20050272738A1, “Combined treatment with oxaliplatin and an epidermal growth factor receptor kinase inhibitor” (priority 2004, published 2005).

“And” between values parts separate entries of the source, which are not always exact repeats. Equal entries are not always repeated. Where two headings read alike, the source gives them in different places.

In series [1] the test system is colorectal cancer. Conditions: cited from earlier work.
In series [2] the test system is LoVo human colon xenograft. Put plainly: Anti-tumor efficacy in LoVo human colorectal xenograft in nude mice (experiments 525 and 540). It is filed as in vivo, female athymic nu/nu mice. An excerpt:
The goal of this study is to assess the anti-tumor efficacy of the small molecule epidermal growth factor receptor inhibitor (EGFRi) Tarceva™ in combination with oxalipaltin on LoVo colorectal human xenograft, grown in female athymic nu/nu mice. Oxaliplatin is an agent that is currently used clinically in the treatment of colorectal cancer alone and in combination with other chemotherapeutic agents and/or radiation, depending on the stage of disease. In this study, the drugs were combined at their respective maximum tolerated dose (MTD) and also combined together at sub-optimal doses. All doses included in the combination groups were also included in the study as monotherapy arms. The attempt was to achieve maximum efficacy/regression without increased toxicity.
(§1) The health of all animals was determined daily by gross observation of experimental animals and by the analyses of blood samples of sentinel animals that were housed on the shared shelf racks. All animals were allowed to acclimate and recover from any shipping related stress for one week prior to experimental manipulation. […] Cages, bedding and water bottles were autoclaved before use and were changed weekly. […] All in vivo experiments were performed in accordance with protocols approved by the Roche Animal Care and Use Committee (RACUC). The Roche animal care facility is fully accredited by the American Association for the Accreditation of Lab Animal Care (AAALAC).
LoVo cells were grown in F-12K+20% FBS (not heat inactivated) and harvested. 5×10^6 cells/0.2 ml/mouse in PBS (Phosphate Buffered Saline) were implanted subcutaneously in the right flank on Aug.
Formulated compound was made up in one batch for the entire 3 week study.
Oxaliplatin was provided in clinical form. […] An aliquot of the stock vial solutions was taken for each dose group representing the drug needed for that group for the entire study duration and diluted out further with sterile saline, to provide a solution that renders a 0.2 ml dosing volume for each individual animal.
For study 540, animals were randomized according to tumor volume on day 17 post tumor implantation so that all groups had similar starting mean tumor volumes of 100-150 mm^3.
For efficacy study 540, treatment began on Sep. […] Tarceva™ was administered using a 1 cc syringe and 18-gauge gavage needles (0.2 ml/animal). Oxaliplatin was administered ip using a 1-cc syringe and 26-gauge needle (0.2 ml/animal). […] Treatment ended on Sep. […] No end of study drug exposure analysis was performed on this study.
(§2) Tumor measurements and mouse weights were taken two-three times per week for LoVo. All animals were individually followed throughout the experiment.
Efficacy data was graphically represented as the mean tumor volume+standard error of the mean (SEM).
Tumor volume (in cubic millimeters) was calculated using the ellipsoid formula: (D×(d2))/2 • where ‘D’ represents the large diameter of the tumor, and ‘d’ represents the small diameter.
In some cases, tumor regression and/or percent change in tumor volume was calculated using the formula: ((T−T0)/T0)×100 • where ‘T’ represents mean tumor volume of the treated group at a particular day and ‘T0’ represents mean tumor volume of the same treated group at initiation of treatment.
Statistical analysis was determined by the rank sum test and One Way Anova and a post-hoc Bonferroni t-test (SigmaStat, version 2.0, Jandel Scientific, San Francisco, Calif.).
In general terms: Xenograft models place foreign cells or tissue in a host animal.

Series [3] has as its system HCT116 tumor model. Conditions: HCT116 model (data not shown).
Series [4] in a line: Toxicity in LoVo efficacy study 540 (body weight, deaths, clinical signs). Conditions: Tarceva 100 mg/kg (Group 2). It is filed as in vivo, female nude mice. Here is the method: as §1
For efficacy study 540, treatment began on Sep. […] Tarceva™ was administered using a 1 cc syringe and 18-gauge gavage needles (0.2 ml/animal). Oxaliplatin was administered ip using a 1-cc syringe and 26-gauge needle (0.2 ml/animal). All groups were treated q7d for 3 weeks (total 3 injections). Treatment ended on Sep. […] No end of study drug exposure analysis was performed on this study.
as §2

The nature of series [5]: Maximum tolerated dose / tolerability of Tarceva in nude mice (MTD study and previous efficacy studies). It is filed as in vivo, naïve female nude mice. The protocol: Preliminary studies were performed in naïve female nude mice to determine the maximum tolerated dose (MTD) of Tarceva™. The MTD was defined as a dose that renders <20% body weight loss and no death in a 14 day study. […] Based on literature, a dosage for oxaliplatin of 10 mg/kg, once a week intraperitoneal was adopted in the study (Cividalli A, et al. (2002) Int. J. Radiat. Oncol. Biol. Phys. 52(4):1092-1098).

Setting [6] is: oxaliplatin 5 mg/kg q7d ip, LoVo, study 540.
Setting [7] is: oxaliplatin 10 mg/kg q7d ip, LoVo, study 540.
Where [8] appears, read: Tarceva 100 mg/kg qd, LoVo, study 540.

With `O=c1[nH]cc(F)c(=O)[nH]1` [5-fluorouracil], the response rates result in series [1] (single-agent treatment, advanced colorectal cancer) is reported as “about 10%”.

`O=C(O)C(=O)O.[NH-][C@@H]1CCCC[C@H]1[NH-].[Pt+2]` [Oxaliplatin]: the results for the “% T/C” value in series [2] (setting [6]) and in series [2] (setting [7]) were 67% and 61%, respectively. For the same compound, the “tumor growth inhibition (TGI)” value in series [2] (setting [6]) amounted to 33%; in series [2] (setting [7]) it was 39%; in series [3] (oxaliplatin 5 mg/kg), 21%; in series [3] (oxaliplatin 10 mg/kg), 26%. In addition, the response rates in series [1] (combined with 5-FU and leucovorin, first-line treatment for colorectal cancer) is on record as 25-40%.

For the compound `C#Cc1cccc(Nc2ncnc3cc(OCCOC)c(OCCOC)cc23)c1` [Tarceva™, [6,7-bis(2-methoxyethoxy)-4-quinazolin-4-yl]-(3-ethynylphenyl) amine], the tumor growth inhibition is reported as 53-79% in series [2] (Tarceva 25 mg/kg qd, LoVo, across experiments) and 53% in series [2] (Tarceva 25 mg/kg qd, LoVo, study 540, day 39 post tumor implant). The “% T/C” value is 47% in series [2] (Tarceva 25 mg/kg qd, LoVo, study 540) and 2% in series [2] (setting [8]). Also, the “number of partial regressions” value in series [2] (setting [8]) is “four”. In addition, the “partial regressions (percent, in brackets)” value in series [2] (setting [8]) was 16% and 7%. Besides, the “tumor growth inhibition (TGI)” value is reported as 98% in series [2] (Tarceva 100 mg/kg qd, LoVo, study 540, day 39 post tumor implant); 79% in series [2] (erlotinib 25 mg/kg monotherapy, LoVo (summary value)); over 100% in series [2] (erlotinib 100 mg/kg monotherapy, LoVo, experiment 525). Also, in series [2] (Tarceva 100 mg/kg, LoVo, experiments 525 and 540), the tumors partially regressed is 40-60%. Moreover, in series [2] (erlotinib 100 mg/kg monotherapy, LoVo), the “mice showing partial regressions (PR)” value is on record as 6/10. In addition, the clinical signs result in series [4] is recorded as “classic reddening of the skin”. For the same compound, in series [5] (CMC/Tween formulation, 14 day study, MTD = <20% body weight loss and no death), the “maximum tolerated dose (MTD)” value is 100 mg/kg qd. Moreover, in series [5] (CMC/Tween formulation, MTD study), the “toxicity at 200 mg/kg qd” value was “showing toxicity”. Besides, in series [5] (CMC/Tween, 3 weeks, previous efficacy studies), the “tolerability at 150 mg/kg once a day” value is “tolerated well”.
